In the experiment the test system is anti-drug antibodies against adalimumab. Description: ACE-Bridge binding to cynomolgus monkey anti-drug antibodies against adalimumab. Conditions: FIG. 3; AP-HIMS from monkeys hyperimmunized with adalimumab; bridging with the labeled test antibody. Here is the method:
Example 5a. […] The anti-adalimumab antibodies were detected using a titration of AP-HIMS in an ACE-Bridge assay. The assay was developed following the FDA Guidance on Immunogenicity testing. […] The following day, plates were washed three times with TBST and the captured anti-adalimumab antibodies were acid eluted using 65 μL/well of 300 mM acetic acid (Fisher Scientific, A38-500) for 5 min at room temperature. […] Next, 50 μL of the acid eluted samples were added to the polypropylene plate containing the mixture in neutralizing buffer and the ADA and were allowed to bridge to the labeled antibodies for 1 h at room temperature. MSD Gold 96-well streptavidin plates (Mesoscale, L15SA-1) were washed and blocked with TBS+1% BSA for 1 h at room temperature, then washed, and 80 μL of bridged samples were added to the plate for 1 h. The plates were washed three times with TBST, and 150 μL/well of 2×MSD Buffer (Mesoscale, R92TC-2) was added to the plates. Plates were read on an MSD SQ120 reader to provide the Tier 1 signal expressed as electro chemiluminescent units (ECLU).
The resulting ECLU signal was then plotted as a function of the concentration of AP-HIMS tested.

In the case of “adalimumab: other anti-TNFα therapeutic antibody [reference compound]”, the “maximum ECLU signal” value is recorded as 40000 ECLU.
